This is an account of results in patent EP0293133A2, “Microorganisms and processes for the manufacture of antifungal tri-yne carbonates” (Merck & Co., Inc., priority 1987, dated 1988).

What all share (assay): agar dilution assay, antifungal activity (MIC)
Type in all cases: cell-based
In general terms: In agar dilution, organisms are placed on agar that contains the substance at set levels.

For assay [1], the system named is Ca. pseudotropicallis. The following applies: Ca. pseudotropicallis MY1040; yeast nitrogen base plus glucose agar, 28°C, 48 hours; read-out: MINIMUM INHIBITORY CONCENTRATION
Here is the method: (§1) The antifungal activity of the compound of formula I was determined by an agar dilution assay as follows: […]
(§2) The compound of formula I was added to cooled, molten yeast nitrogen base plus glucose agar (1.0 ml of drug plus 9.0 ml agar). Appropriate solvent and media controls (drug free) also were prepared. Prepared plates were stored in the dark at room temperature overnight prior to use.
(§3) The yeast cultures, maintained in yeast maltose (YM) broth, were transferred to fresh YM medium and incubated overnight at 37°C with shaking (250 rpm). After incubation, each culture was diluted in sterile saline to yield final concentrations of 3 x 10⁵ to 3 x 10⁶ colony forming units (CFU)/ml. The isolates of Aspergillus and Penicillium were maintained on potato dextrose agar slants and spore suspensions made following vigourous shaking with sterile glass beads. The spore preparations were used as the inocula for these three filamentous fungi.
(§4) Each prepared plate was inoculated with 21 yeast-like and filamentous fungi using a Denley Multipoint Inoculator (Denley, Sussex, England). The inoculator delivers approximately 0.001 ml to the agar surface resulting in inoculation of from 3 x 10² to 3 x 10³ CFUs. The plates were incubated at 28°C for 48 hours. The minimum inhibitory concentrations (MICs) were recorded as the lowest concentration of drug showing no growth or less than three CFU/spot.

For assay [2], the system named is Ca. stellatoidea. Particulars: Candida albicans; Ca. stellatoidea MY1018; yeast nitrogen base plus glucose agar, 28°C, 48 hours; read-out: MINIMUM INHIBITORY CONCENTRATION
Here is the method: as §1, §2, §3, §4

The subject of assay [3] is Ca. guilliermondii. The following applies: Meyerozyma guilliermondii; Ca. guilliermondii MY1019; yeast nitrogen base plus glucose agar, 28°C, 48 hours; read-out: MINIMUM INHIBITORY CONCENTRATION
Here is the method:
as §1, §2, §3, §4

Assay [4] deals with Ca. krusei. Particulars: Pichia kudriavzevii; Ca. krusei MY1020; yeast nitrogen base plus glucose agar, 28°C, 48 hours; read-out: MINIMUM INHIBITORY CONCENTRATION
The procedure: as §1, §2, §3, §4

Assay [5] relates to Torulopsis glabrata. The following applies: Nakaseomyces glabratus; Torulopsis glabrata MY1059; yeast nitrogen base plus glucose agar, 28°C, 48 hours; read-out: MINIMUM INHIBITORY CONCENTRATION
Here is the method: as §1, §2, §3, §4

The test system of assay [6] is Ca. rugosa. Particulars: Diutina rugosa; Ca. rugosa MY1022; yeast nitrogen base plus glucose agar, 28°C, 48 hours; read-out: MINIMUM INHIBITORY CONCENTRATION
The procedure: as §1, §2, §3, §4

Assay [7] relates to Sac. cerevisiae. Particulars: Saccharomyces cerevisiae; Sac. cerevisiae MY1027; yeast nitrogen base plus glucose agar, 28°C, 48 hours; read-out: MINIMUM INHIBITORY CONCENTRATION
The procedure: as §1, §2, §3, §4

Assay [8] relates to Ca. parapsilosis. The following applies: Lodderomyces parapsilosis, 48 h, 28°C, read-out: MINIMUM INHIBITORY CONCENTRATION
Here is the method: as §1, §2, §3, §4

Assay [9] deals with A. flavus. The following applies: Aspergillus flavus; A. flavus MF0383; spore inoculum, yeast nitrogen base plus glucose agar, 28°C, 48 hours; read-out: MINIMUM INHIBITORY CONCENTRATION
Here is the method:
as §1, §2, §3, §4

Assay [10] has as its system Ca. tropicalis. Particulars: Candida tropicalis, 48 h, 28°C, read-out: MINIMUM INHIBITORY CONCENTRATION
Here is the method:
as §1, §2, §3, §4

Assay [11] relates to Aspergillus fumigatus. Particulars: Aspergillus fumigatus MF4839; spore inoculum, yeast nitrogen base plus glucose agar, 28°C, 48 hours; read-out: MINIMUM INHIBITORY CONCENTRATION
The procedure:
as §1, §2, §3, §4

In assay [12] the test system is Penicillium italicum. The following applies: Penicillium italicum MF2819; spore inoculum, yeast nitrogen base plus glucose agar, 28°C, 48 hours; read-out: MINIMUM INHIBITORY CONCENTRATION
Here is the method: as §1, §2, §3, §4

For assay [13], the system named is Crypotococcus neoformans. Particulars: yeast nitrogen base plus glucose agar, 28°C, 48 hours, read-out: MINIMUM INHIBITORY CONCENTRATION
The procedure: as §1, §2, §3, §4

Assay [14] relates to Candida albicans. Particulars: 48 h, 28°C, read-out: MINIMUM INHIBITORY CONCENTRATION
Here is the method: as §1, §2, §3, §4

Where two headings read alike, the source gives them in different places. A value given as a limit tells only on which side of the number the result lay.

As to `C#CC#CC#CC(O)C1OC(=O)OC1CCCCCCC(=O)O` (stereo not drawn) [compound of formula I], the MIC in assay [1] was 0.94 µg/mL; in assay [2], 7.5 µg/mL; in assay [3], 7.5 µg/mL; in assay [4] it was 30 µg/mL; in [5], 1.88 µg/mL; in assay [6], 7.5 µg/mL. The MIC is 1.88 µg/mL in assay [7]; 1.88 µg/mL in assay [8] (Ca. parapsilosis MY1009, yeast nitrogen base plus glucose agar); 0.47 µg/mL in assay [8] (Ca. parapsilosis MY1010, yeast nitrogen base plus glucose agar); more than 30 µg/mL in assay [9]; 15 µg/mL in assay [10] (Ca. tropicalis MY1011, yeast nitrogen base plus glucose agar); 1.88 µg/mL in assay [10] (Ca. tropicalis MY1012, yeast nitrogen base plus glucose agar). For the same compound, the MIC in [11] was more than 30 µg/mL; in assay [12], 7.5 µg/mL; in assay [13] (Cr. neoformans MY1146), 3.75 µg/mL; in [13] (Crypotococcus neoformans MY1051), 1.88 µg/mL; in assay [14] (Ca. albicans MY0992, yeast nitrogen base plus glucose agar) it was 7.5 µg/mL; in [14] (Ca. albicans MY1013, yeast nitrogen base plus glucose agar) it was 0.47 µg/mL. Also, the MIC is 0.47 µg/mL in [14] (Ca. albicans MY1029, yeast nitrogen base plus glucose agar); 0.47 µg/mL in assay [14] (Ca. albicans MY1055, yeast nitrogen base plus glucose agar); 0.47 µg/mL in assay [14] (Candida albicans MY1058, yeast nitrogen base plus glucose agar).
